Among the test systems are M14 melanoma; KM12 colon; MDA-MB-231 breast; HCC-2998 colon; OVCAR-3 ovarian; SK-MEL-5 melanoma; CCRF-CEM leukemia; HT29 colon; NCI-H522 lung; HS 578T breast.
Holding throughout (experiment): inhibition of tumour cell growth, NCI panel, 48 h

Experimental findings from PubChem BioAssay (NCI) are described below.

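Tested at 5 concentrations; 48 h exposure; 96-well plates; endpoints linearly interpolated, else capped at highest concentration. The concentration for full growth arrest is given as TGI.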

On to `C[C@@](Br)(C(=O)O)[C@H](Br)C(=O)O`, for which the TGI in the test on M14 melanoma, in the test on KM12 colon, with MDA-MB-231 breast, in the test with HCC-2998 colon, with OVCAR-3 ovarian and with SK-MEL-5 melanoma was over 100 µM each time. Moreover, the TGI in the test with CCRF-CEM leukemia and in the test with HT29 colon was over 100 µM in each case.
On to `O=c1ccn([C@@H]2C=C(CO)[C@@H](O)[C@H]2O)c(=O)[nH]1`, for which the TGI with KM12 colon, with NCI-H522 lung, in the test with HCC-2998 colon, with OVCAR-3 ovarian, with SK-MEL-5 melanoma and in the test on CCRF-CEM leukemia was over 625 µM throughout. Besides, the TGI in the test on HT29 colon was over 625 µM.
As for `O=C(/C=C/CC(O)(c1ccccc1)c1ccccc1)Nc1ccccc1Cl`, the TGI in the test on M14 melanoma, in the test on KM12 colon, with NCI-H522 lung, in the test on HCC-2998 colon, in the test on OVCAR-3 ovarian and in the test with SK-MEL-5 melanoma was over 100 µM each time. Besides, the TGI in the test on CCRF-CEM leukemia and in the test on HT29 colon was over 100 µM throughout.
With `O=c1[nH]nc(-c2ccc([N+](=O)[O-])cc2)[nH]1`, the TGI in the test on M14 melanoma, in the test on KM12 colon, in the test with NCI-H522 lung, with HS 578T breast, in the test on HCC-2998 colon and with OVCAR-3 ovarian was over 100 µM each time. Moreover, the TGI in the test with CCRF-CEM leukemia and with HT29 colon was over 100 µM in each case.
Turning to `Cc1cccc2c(N)c3cccc(C(=O)NCC[N+](C)(C)[O-])c3nc12`, the TGI in the test on M14 melanoma was 55 µM; in the test on KM12 colon it was over 100 µM; in the test with MDA-MB-231 breast it was 75.1 µM; with HS 578T breast, 38.9 µM; in the test with HCC-2998 colon it was 24.5 µM; in the test on OVCAR-3 ovarian, over 100 µM. In addition, the TGI with SK-MEL-5 melanoma is over 100 µM; with CCRF-CEM leukemia it was over 100 µM; in the test on HT29 colon, 60.3 µM.
As for `COc1cccc(Nc2nc3c([nH]2)c(=O)n(C)c(=O)n3C)c1`, the TGI with M14 melanoma, in the test with KM12 colon, in the test on MDA-MB-231 breast, in the test with HCC-2998 colon, in the test with SK-MEL-5 melanoma and in the test on CCRF-CEM leukemia was over 10 µM throughout. Besides, the TGI with HT29 colon was over 10 µM.
`O=C1c2c(Br)sc(Br)c2[C@H]2OC(=S)N[C@@H]12`: the TGI in the test with M14 melanoma is 4.1 µM; in the test with KM12 colon, 38.8 µM; in the test with NCI-H522 lung it was 3.4 µM; in the test on MDA-MB-231 breast, 25 µM; in the test with HS 578T breast it was over 52.7 µM; in the test on HCC-2998 colon it was 22.4 µM. Moreover, the results for the TGI with OVCAR-3 ovarian, in the test on SK-MEL-5 melanoma and with HT29 colon were 7.26 µM, 23.8 µM and 4.05 µM, respectively.
`CC(Br)CN(CC(C)Br)c1ccc2c(c1)Cc1ccccc1-2` (stereo not given): the TGI came to 24.3 µM in the test on M14 melanoma; 31.4 µM with KM12 colon; 21.2 µM with NCI-H522 lung; 26.8 µM in the test with MDA-MB-231 breast; 41.7 µM in the test with HS 578T breast; 24 µM in the test with OVCAR-3 ovarian. Also, the TGI was 25.2 µM with SK-MEL-5 melanoma, over 100 µM with CCRF-CEM leukemia and 25.9 µM with HT29 colon.
As for `COc1cc2c3cc1Oc1cc(ccc1O)C[C@@H]1c4c(cc(OC)c(O)c4Oc4ccc(cc4)C[C@@H]3[N+](C)(C)CC2)CC[N+]1(C)C`, the TGI was 30.4 µM with M14 melanoma; over 100 µM with KM12 colon; over 100 µM in the test on NCI-H522 lung; over 100 µM in the test on MDA-MB-231 breast; 85.1 µM in the test on HS 578T breast; over 100 µM in the test on OVCAR-3 ovarian. For the same compound, the TGI with SK-MEL-5 melanoma and with HT29 colon was over 100 µM in each case.
On to `COc1ccccc1Cn1c2c(c3cc(O)ccc31)C(=O)c1ccccc1C2=O`, for which the TGI in the test on M14 melanoma is over 100 µM; with KM12 colon, over 100 µM; with MDA-MB-231 breast, 38.2 µM; in the test on HS 578T breast it was over 100 µM; with OVCAR-3 ovarian, over 100 µM; with SK-MEL-5 melanoma, over 100 µM. The TGI in the test on CCRF-CEM leukemia and with HT29 colon was over 100 µM each time.
In the case of `O=C1c2cccnc2C(=O)c2c1nc1ccccc1c2-c1ccc2c3c(nc4ccccc42)C(=O)c2cccnc2-c13`, the TGI is 4.55 µM in the test on M14 melanoma; 12.5 µM in the test with KM12 colon; 4.58 µM in the test on NCI-H522 lung; 9.49 µM with MDA-MB-231 breast; 11.1 µM in the test on HS 578T breast; 9.28 µM in the test with HCC-2998 colon. Also, the results for the TGI with SK-MEL-5 melanoma, in the test on CCRF-CEM leukemia and in the test with HT29 colon were 1.77 µM, 15.5 µM and 7.57 µM, respectively.
Consider `COc1ccc2c(c1)-c1nc(=S)n(CCN(C)C)c3ccc([N+](=O)[O-])c(c13)N2`, for which the TGI came to 7.43 µM in the test on M14 melanoma; 6.27 µM in the test with KM12 colon; 2.04 µM with NCI-H522 lung; 2.68 µM with MDA-MB-231 breast; 7.69 µM in the test on HS 578T breast; 2.15 µM in the test on HCC-2998 colon. In addition, the figures for the TGI in the test on OVCAR-3 ovarian, in the test with SK-MEL-5 melanoma and with HT29 colon were 19.3 µM, 7.61 µM and 2.25 µM, respectively.
Consider `CN(C)CCN1C(=O)N(CCN(C)C)c2c3cc(O)ccc3nc3c([N+](=O)[O-])ccc1c23`, for which the TGI in the test on KM12 colon is 23.3 µM; with NCI-H522 lung it was 33.3 µM; in the test on MDA-MB-231 breast, 25.4 µM; with HS 578T breast, 45.8 µM; with HCC-2998 colon, 25.8 µM; in the test with SK-MEL-5 melanoma it was 26.8 µM. The TGI in the test on CCRF-CEM leukemia was 20 µM; in the test with HT29 colon, 20.1 µM.
On to `C=CCN(c1cc(OC)c2[nH]c(C(=O)O)c(C)c2c1[N+](=O)[O-])S(C)(=O)=O`, for which the TGI in the test on M14 melanoma, with KM12 colon, in the test with NCI-H522 lung, in the test on MDA-MB-231 breast, in the test on HS 578T breast and with HCC-2998 colon was over 100 µM each time. Also, the TGI in the test on OVCAR-3 ovarian, with SK-MEL-5 melanoma and with CCRF-CEM leukemia was over 100 µM each time.
With `COC(=O)c1ccc2cc(O)ccc2c1`, the TGI in the test with M14 melanoma, in the test with KM12 colon, in the test on NCI-H522 lung, in the test on MDA-MB-231 breast, in the test on HCC-2998 colon and in the test on OVCAR-3 ovarian was over 100 µM in each case. In addition, the TGI in the test on SK-MEL-5 melanoma, in the test on CCRF-CEM leukemia and in the test with HT29 colon was over 100 µM throughout.
